Non-standard residues stand in square brackets, D forms with d. Residues, ends and D or L forms follow the SMILES beside them. Dmt = Cc1cc(O)cc(C)c1C[C@H](N)C(=O)O; Orn = NCCC[C@H](N)C(=O)O
test system: A549 cells; type: cell-based, human; details: 24 h
Procedure: Cells were seeded in 96‐well cell culture plates (8000/well) and allowed to grow for 48 h. After washing with PBS, cells were fixed with 50% trichloroacetic acid and stained with SRB for 20 min. Excess SRB was removed, and cells were washed with 1% acetic acid. SRB extraction was done using 100 mM Tris‐base, and absorbance at 510 nm was determined using an Infinite M1000 plate reader (Tecan, Männedorf, Switzerland).
Fig. 7 PSD‐interacting peptides bind to PSD, inhibiting its activity, and when cell‐penetrating and mitochondria‐ or nucleus‐targeted, inhibit cell proliferation. […] (B) Inhibition of PSD activity by the 2F3 (●) or 1C11 (○) peptide. PSD activity was measured using the DSB‐3 method. (C‐E) Cell proliferation inhibition following incubation of A549 cells with the indicated mitochondria‐ or nucleus‐targeted peptides for 24 h in a serum‐free medium, and cell proliferation was assayed using the SRB method. Results are the means ± SEM (n = 3). (F) A549 cells were incubated for 90 min with 5 µM of the mitochondria‐ or nucleus‐targeted FITC‐labelled peptides, immunostained with anti‐SMAC antibodies and with DAPI and visualized by confocal microscope for subcellular localization. (a) and (b) present higher magnification, white arrows point to possible nuclear localization of the peptide, and blue arrows to its colocalization with mitochondria marker (n = 3). Scale bars represent 20, 10 µm as indicated.
Table S4. Effects of peptide identified as interacting with PSD or their interaction with SMAC/Diablo is prevented in the presence of PSD on A549 lung cancer cell growth A549 cells were seeded in 96-well plate (7000 cells/well). After 24 h cells were incubated without or with the indicated peptide concentration for 24 h in a serum-free medium. Then, cells were washed with PBS, and analyzed for cell growth using the SRB method. Results are the mean ± SD (n=3). Peptide sequence, its identification manner, based on interacting with PSD or their interaction with SMAC/Diablo is prevented in the presence of PSD are shown. In addition, the peptides are presented with the cell penetrating peptide targeting to the mitochondria or the nucleus. The results are presented as the concentration required for 50% inhibition (IC50).
No Peptide spot and Protein/Function Peptide and Cellular IC50 […]
ALSTSSPIPSVPQSQ transcriptional coactivator 2 Mitochondria (A) […]
AQPQTGSGAS truncated poly Q, transcriptional H-(D-Arg)–Dmt–Orn–Phe- 2F3 >100 Interacting with PSD coactivator for NOTCH proteins, Mitochondria promotes proliferative signaling R-{D-Arg}-RK- 2F3 28.9±5.2 during neurogenesis (Nucleus). Nucleus […]
PNQSSRAFQGTDHS transcriptional coactivator 2 Mitochondria
SDLAFDFLSQQ truncated poly Q, A transcriptional D-Arg–Dmt–Orn–Phe-2I8 66.8±4.7 Identified by PSD coactivator for NOTCH proteins, Mitochondria preventing SMAC promotes proliferative signaling R-{D-Arg}-RK-2I8 >100 interaction with it during neurogenesis (Nucleus). Nucleus […]
ALLTSGTSDPRARV protease promotes cell death either Mitochondria […]
TYGTPSLWARL by direct binding to IAPs proteins D-Arg–Dmt–Orn–Phe -1C11 89.3±5.49 Interacting with PSD leading to increased caspase Mitochondria activity or caspase-independent and serine protease activity-dependent R-{D-Arg}-RK- 1C11 66.5±3.9 mechanism. (Mitochondrion Nucleus intermembrane space). 1C11- R-{D-Arg}-RK 30.0±3.8 […]
ELYRMSTYSTFPAG Acts as an E3 ubiquitin-protein Mitochondria
VPVSERSLARA ligase, regulator of NF-kappa-B 1E14- D-Arg–Dmt–Orn–Phe >100 Identified by PSD signaling, apoptosis, cell Mitochondria preventing SMAC proliferation, cell invasion and R-{D-Arg}-RK-1E14 >100 interaction with it metastasis, modulates inflammatory Nucleus signaling, (Cytosol, nucleus and […]

**Q.** Which IC50 does the source give for CSCC[C@H](NC(=O)[C@H](CCCNC(=N)N)NC(=O)[C@H](Cc1ccc(O)cc1)NC(=O)[C@H](CC(C)C)NC(=O)[C@@H](N)CCC(=O)O)C(=O)N[C@@H](CO)C(=O)N[C@H](C(=O)N[C@@H](Cc1ccc(O)cc1)C(=O)N[C@@H](CO)C(=O)N[C@H](C(=O)N[C@@H](Cc1ccccc1)C(=O)N1CCC[C@H]1C(=O)N[C@@H](C)C(=O)NCC(=O)N[C@H](C(=O)N1CCC[C@H]1C(=O)N[C@H](C(=O)N[C@@H](CO)C(=O)N[C@@H](CCC(=O)O)C(=O)N[C@@H](CCCNC(=N)N)C(=O)N[C@@H](CO)C(=O)N[C@@H](CC(C)C)C(=O)N[C@@H](C)C(=O)N[C@@H](CCCNC(=N)N)C(=O)N[C@@H](C)C(=O)N[C@H](CCCNC(=N)N)C(=O)N[C@@H](Cc1c(C)cc(O)cc1C)C(=O)N[C@@H](CCCN)C(=O)N[C@@H](Cc1ccccc1)C(N)=O)C(C)C)C(C)C)[C@@H](C)O)[C@@H](C)O [1E14-D-Arg–Dmt–Orn–Phe] (H-ELYRMSTYSTFPAGVPVSERSLARA[dR][Dmt][Orn]F-NH2; N-terminus and C-terminus assumed) here?
**A.** > 100 µM

**Q.** How did the IC50 turn out when Cc1cc(O)cc(C)c1C[C@H](NC(=O)[C@H](N)CCCNC(=N)N)C(=O)N[C@@H](CCCN)C(=O)N[C@@H](Cc1ccccc1)C(=O)N[C@@H](C)C(=O)N[C@@H](CC(C)C)C(=O)N[C@@H](CC(C)C)C(=O)N[C@H](C(=O)N[C@@H](CO)C(=O)NCC(=O)N[C@H](C(=O)N[C@@H](CO)C(=O)N[C@@H](CC(=O)O)C(=O)N1CCC[C@H]1C(=O)N[C@@H](CCCNC(=N)N)C(=O)N[C@@H](C)C(=O)N[C@@H](CCCNC(=N)N)C(=O)N[C@H](C(=O)N[C@H](C(=O)N[C@@H](Cc1ccc(O)cc1)C(=O)NCC(=O)N[C@H](C(=O)N1CCC[C@H]1C(=O)N[C@@H](CO)C(=O)N[C@@H](CC(C)C)C(=O)N[C@@H](Cc1c[nH]c2ccccc12)C(=O)N[C@@H](C)C(=O)N[C@@H](CCCNC(=N)N)C(=O)N[C@@H](CC(C)C)C(=O)O)[C@@H](C)O)[C@@H](C)O)C(C)C)[C@@H](C)O)[C@@H](C)O [D-Arg–Dmt–Orn–Phe -1C11] (H-[dR][Dmt][Orn]FALLTSGTSDPRARVTYGTPSLWARL-OH; N-terminus and C-terminus assumed) was run?
**A.** 89.3 ± 5.49 µM

**Q.** How did the IC50 turn out when CSCC[C@H](NC(=O)[C@H](CCCNC(=N)N)NC(=O)[C@H](Cc1ccc(O)cc1)NC(=O)[C@H](CC(C)C)NC(=O)[C@H](CCC(=O)O)NC(=O)[C@H](CCCCN)NC(=O)[C@H](CCCNC(=N)N)NC(=O)[C@@H](CCCNC(=N)N)NC(=O)[C@@H](N)CCCNC(=N)N)C(=O)N[C@@H](CO)C(=O)N[C@H](C(=O)N[C@@H](Cc1ccc(O)cc1)C(=O)N[C@@H](CO)C(=O)N[C@H](C(=O)N[C@@H](Cc1ccccc1)C(=O)N1CCC[C@H]1C(=O)N[C@@H](C)C(=O)NCC(=O)N[C@H](C(=O)N1CCC[C@H]1C(=O)N[C@H](C(=O)N[C@@H](CO)C(=O)N[C@@H](CCC(=O)O)C(=O)N[C@@H](CCCNC(=N)N)C(=O)N[C@@H](CO)C(=O)N[C@@H](CC(C)C)C(=O)N[C@@H](C)C(=O)N[C@@H](CCCNC(=N)N)C(=O)N[C@@H](C)C(=O)O)C(C)C)C(C)C)[C@@H](C)O)[C@@H](C)O [R-{D-Arg}-RK-1E14] (H-R[dR]RKELYRMSTYSTFPAGVPVSERSLARA-OH; N-terminus and C-terminus assumed) was run?
**A.** > 100 µM

**Q.** How did the IC50 turn out when Cc1cc(O)cc(C)c1C[C@H](NC(=O)[C@@H](CCCNC(=N)N)NC(=O)[C@H](CC(C)C)NC(=O)[C@H](CCCNC(=N)N)NC(=O)[C@H](C)NC(=O)[C@H](Cc1c[nH]c2ccccc12)NC(=O)[C@H](CC(C)C)NC(=O)[C@H](CO)NC(=O)[C@@H]1CCCN1C(=O)[C@@H](NC(=O)CNC(=O)[C@H](Cc1ccc(O)cc1)NC(=O)[C@@H](NC(=O)[C@@H](NC(=O)[C@H](CCCNC(=N)N)NC(=O)[C@H](C)NC(=O)[C@H](CCCNC(=N)N)NC(=O)[C@@H]1CCCN1C(=O)[C@H](CC(=O)O)NC(=O)[C@H](CO)NC(=O)[C@@H](NC(=O)CNC(=O)[C@H](CO)NC(=O)[C@@H](NC(=O)[C@H](CC(C)C)NC(=O)[C@H](CC(C)C)NC(=O)[C@H](C)N)[C@@H](C)O)[C@@H](C)O)C(C)C)[C@@H](C)O)[C@@H](C)O)C(=O)N[C@@H](CCCN)C(=O)N[C@@H](Cc1ccccc1)C(N)=O [1C11-D-Arg–Dmt–Orn–Phe] (H-ALLTSGTSDPRARVTYGTPSLWARL[dR][Dmt][Orn]F-NH2; N-terminus and C-terminus assumed) was run?
**A.** 30.3 ± 5.5 µM

**Q.** CC[C@H](C)[C@H](NC(=O)[C@@H]1CCCN1C(=O)[C@H](CO)NC(=O)[C@H](CO)NC(=O)[C@@H](NC(=O)[C@H](CO)NC(=O)[C@H](CC(C)C)NC(=O)[C@H](C)NC(=O)[C@H](Cc1ccccc1)NC(=O)[C@H](CCCN)NC(=O)[C@H](Cc1c(C)cc(O)cc1C)NC(=O)[C@H](N)CCCNC(=N)N)[C@@H](C)O)C(=O)N1CCC[C@H]1C(=O)N[C@@H](CO)C(=O)N[C@H](C(=O)N1CCC[C@H]1C(=O)N[C@@H](CCC(N)=O)C(=O)N[C@@H](CO)C(=O)N[C@@H](CCC(N)=O)C(=O)N[C@@H](C)C(=O)N[C@@H](CCC(N)=O)C(=O)N1CCC[C@H]1C(=O)N[C@@H](CCC(N)=O)C(=O)N[C@H](C(=O)NCC(=O)N[C@@H](CO)C(=O)NCC(=O)N[C@@H](C)C(=O)N[C@@H](CO)C(=O)O)[C@@H](C)O)C(C)C [H-(D-Arg)–Dmt–Orn–Phe- 2F3] (H-[dR][Dmt][Orn]FALSTSSPIPSVPQSQAQPQTGSGAS-OH; C-terminus assumed) was tested. Which IC50 did it give?
**A.** > 100 µM

**Q.** CC(C)C[C@H](NC(=O)[C@H](CCCNC(=N)N)NC(=O)[C@H](C)NC(=O)[C@H](Cc1c[nH]c2ccccc12)NC(=O)[C@H](CC(C)C)NC(=O)[C@H](CO)NC(=O)[C@@H]1CCCN1C(=O)[C@@H](NC(=O)CNC(=O)[C@H](Cc1ccc(O)cc1)NC(=O)[C@@H](NC(=O)[C@@H](NC(=O)[C@H](CCCNC(=N)N)NC(=O)[C@H](C)NC(=O)[C@H](CCCNC(=N)N)NC(=O)[C@@H]1CCCN1C(=O)[C@H](CC(=O)O)NC(=O)[C@H](CO)NC(=O)[C@@H](NC(=O)CNC(=O)[C@H](CO)NC(=O)[C@@H](NC(=O)[C@H](CC(C)C)NC(=O)[C@H](CC(C)C)NC(=O)[C@H](C)NC(=O)[C@H](CCCCN)NC(=O)[C@H](CCCNC(=N)N)NC(=O)[C@@H](CCCNC(=N)N)NC(=O)[C@@H](N)CCCNC(=N)N)[C@@H](C)O)[C@@H](C)O)C(C)C)[C@@H](C)O)[C@@H](C)O)C(=O)O [R-{D-Arg}-RK- 1C11] (H-R[dR]RKALLTSGTSDPRARVTYGTPSLWARL-OH; N-terminus and C-terminus assumed) was tested. Which IC50 did it give?
**A.** 66.5 ± 3.9 µM
